From patent US8716294B2, “Methods for treating inflammatory conditions” (Melior Discovery, Inc., priority 2006, dated 2014)

Legend:
Format in all cases: in vivo
ICR:CD1 male mice [1] = test: Delayed-type hypersensitivity (DTH), sheep red blood cell challenge, footpad swelling; conditions: SRBC challenge into footpad, all three doses (10, 30, 100 mg/kg)
Procedure: In this study, tenilsetam was assessed for its ability to affect the delayed-type hypersensitivity (DTH) reactions. DTH reactions are antigen-specific cell-mediated immune responses that can mediate harmful (e.g., allergic dermatitis and autoimmunity) aspects of immune function. The immune reaction induced by the method described below is characterized by swelling at the site of challenge and by an infiltration of monocytes/macrophages and lymphocytes into the epidermis and dermis. This model for skin DTH reactions has been used widely to monitor cell-mediated immune responses in vivo. […] (dexamethasone), a steroid anti-inflammatory, reduces cell-mediated immune responses and was employed to pharmacologically validate the assay.
Materials and Methods. ICR:CD1 male mice (Harlan) 12 to 13 weeks of age were used for this study. Animals were kept on a 12 hr light dark cycle and fed ad libitum. On day 1 of the study, mice were injected IV with 1×10^6 of washed sheep red blood cells in a volume of 200 μL. Mice were administered tenilsetam on day 6. […]
On day 7, mice were re-administered drug as above. Footpad thickness of both the back right and back left foot pads was measured using a digital micrometer. […]
Data are expressed as the average±SEM. Data were averaged and analyzed by ANOVA followed by a post-hoc Tukey's test with a p value of less then 0.05 indicating a statistical difference. […]

ICR:CD1 male mice [2] = test: Oxazolone contact hypersensitivity (contact dermatitis), ear redness and thickness; conditions: all three doses (10, 30, 100 mg/kg)
Procedure: Contact Hypersensitivity (Contact Dermatitis). Contact hypersensitivity (CHS)^3 is a T cell-mediated cutaneous immune/inflammatory reaction to haptens. Oxazolone can be used to evoke a contact hypersensitivity reaction and produce an animal model of contact dermatitis. Tenilsetam was assessed for its ability to affect oxazolone mediated contact dermatitis reaction.
Materials and Methods. ICR:CD1 male mice (Harlan) 12 to 13 weeks of age were used for this study. Animals were kept on a 12 hr light dark cycle and fed ad libitum.
Oxazolone sensitization. Mice were exposed to 50 μL of 3% oxazolone (in 100% ethanol) via topical application to the skin of the abdomen. Additional exposure was via the 4 paws with a small amount of oxazolone.
Oxazolone challenge. On day 5, both ears of mice were exposed to 1% oxazolone (20 μL per ear; 10 μL/side of ear).
Analysis. On day 6, ears were scored for redness on a 0-3 scoring basis and were measured for thickness using a micrometer. These values were recorded, group values were averaged and statistical differences determined by ANOVA followed by a Mann-Whitney U-test (for visual score) or by Tukey's test (for ear thickness). A p value of less than 0.05 was used to indicate statistical significance.
For this study, there were 5 groups: vehicle, and tenilsetam at 3 dose levels: 10, 30 and 100 mg/kg. In addition, there was a dexamethasone group. […]

TNFα = test: Lipopolysaccharide general inflammation / septic shock model, TNFα by ELISA; conditions: mice, LPS 0.25 mg/kg ip, blood 90 minutes after LPS; doses of 10 and 30 mg/kg, given 15 minutes prior to LPS; FIG. 3
Excerpt: Lipopolysaccharide General Inflammation. Bolus injection of lethal or sublethal doses of lipopolysaccharide (LPS; the major component of bacterial cell wall) results in the rapid and transient rise in tumor necrosis factor (TNFα) levels in serum in mammals. This animal model was developed to mirror certain aspects of septic shock in humans. This model is also an effective first-line general inflammation model and may be used to determine the anti-inflammatory potential of test compounds.
Materials and methods. Male ICR:CD1 mice (Harlan Sprague Dawley, Indianapolis, Ind.) 9 to 10 weeks of age were housed three per cage, kept on a standard 12 hr light cycle and fed western (high-fat) diet for 5.5 weeks for these studies. Mice were provided food and water ad libitum.
Lipopolysaccharide (heat killed E. coli 0127:B5; SigmaAldrich) was prepared in water at a concentration of 0.025 mg/ml. LPS was dosed at a volume of 10 ml/kg (ip) to produce a final dose of 0.25 mg/kg or 7.5 μg/mouse. […] Plasma was prepared from blood and TNFα levels determined by ELISA as described below.
Serum TNFα levels were determined using the OptEIA™ mouse TNFα ELISA kit (BD Biosciences) as per directions of the manufacturer. Data were averaged and analyzed by ANOVA followed by a post-hoc Tukey's test with a p value of less then 0.05 indicating a statistical difference. […]

`O=C1NCCNC1c1cccs1` (racemic) [Tenilsetam, (+/−)-3-(2-thienyl)-2-piperazinone] was tested, and the “foot swelling by visual examination” value (ICR:CD1 male mice [1]) was “significantly decreased”, the “foot swelling as measured using a micrometer” value (ICR:CD1 male mice [1]; FIG. 1) was “significantly decreased” and the “ear swelling after oxazolone challenge, visual scoring” value (ICR:CD1 male mice [2]; day 6, 0-3 redness score, FIG. 2A) was “significantly decreased”. The “ear swelling after oxazolone challenge, ear thickness measurements” value (ICR:CD1 male mice [2]; day 6, micrometer, FIG. 2B) was “significantly decreased” and the TNFα levels (TNFα) was “decreased”.
